Test results published in article PMC12612088 (Scientific Reports, 2025).

Molecular target: Pyruvate Dehydrogenase Kinase 3 (PDK3) (Homo sapiens, UniProt Q15120)
Assay: BIOMOL Green ATPase assay with purified PDK3
Format: biochemical

Chain of Pyruvate Dehydrogenase Kinase 3 (PDK3) (Q15120 whole entry): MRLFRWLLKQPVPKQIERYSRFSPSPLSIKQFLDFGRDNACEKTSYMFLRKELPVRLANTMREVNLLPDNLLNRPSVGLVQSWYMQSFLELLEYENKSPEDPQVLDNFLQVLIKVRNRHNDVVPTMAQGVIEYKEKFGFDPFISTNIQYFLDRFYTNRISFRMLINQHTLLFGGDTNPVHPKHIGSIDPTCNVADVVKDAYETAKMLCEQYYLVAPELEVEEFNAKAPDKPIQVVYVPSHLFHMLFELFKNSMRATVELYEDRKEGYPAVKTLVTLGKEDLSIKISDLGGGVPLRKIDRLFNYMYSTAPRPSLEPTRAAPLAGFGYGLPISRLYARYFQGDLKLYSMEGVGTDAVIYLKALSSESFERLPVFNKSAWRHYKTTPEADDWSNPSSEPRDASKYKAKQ

IC50: 3.52 µM
Compound: Cc1ccc(O)cc1 [p-C, 4-methylphenol]
